Assay results published in patent publication US20240122957A1, “USE OF NICOTINAMIDE MONONUCLEOTIDE (NMN) FOR THE PREVENTION AND/OR TREATMENT OF RHEUMATOID ARTHRITIS, AND CORRESPONDING COMPOSITIONS” (NUVAMID SA, priority 2019, published 2024).
Entries after “also recorded” stand apart in the source; their conditions may differ. Like-named read-outs stand apart in the source and are kept apart here.

How the values were obtained:
[1] = test system: C57BL6/J mice treated with K/BxN serum (RA model); experiment: K/BxN serum-induced RA model in mice (clinical score, paw thickness, paw photographs); assay type: in vivo
Experimental: Here, NMN was used in zwitterionic form. […] Dexamethasone was administered subcutaneously.

[2] = Weight and tolerance of mice in the K/BxN serum RA model
Experimental: (§1) In brief, 8-week-old female C57BL6/J mice, weighing between 18-20 g on day 0 of the experiments, were divided into 4 group of 10 mice each: (i) a control group, in which the mice were treated with vehicle, i.e. a 0.9% NaCl solution (10 mL/kg), marked ‘Vehicle’; (ii) a group of mice treated with K/BxN serum (10 mL/kg), marked ‘KBxN’; (iii) a group of mice treated with K/BxN serum+dexamethasone (1 mg/kg), marked ‘KBxN+dexamethasone’; and (iv) a group of mice treated with K/BxN serum+NMN (185 mg/kg), marked ‘KBxN+NMN’.
(§2) The administration of this serum induced chronic joint inflammation in mice in order to mimic RA. […] Here, NMN was used in zwitterionic form. KBxN serum and NMN were administered intraperitoneally to the nice. Dexamethasone was administered subcutaneously.
(§3) The mice were treated for 9 days under the conditions set forth supra. Photos of the paws of the mice were taken on the 6th day of treatment. […] The clinical score and weight of the mice were measured daily. The clinical score was determined by measuring the thickness of each of the front and rear paws of the mice, and adding the associated score according to table 1 infra:
(§4) The statistical analysis of the results was carried out using two-factor ANOVA combined with the Dunnett multiple comparison test.

[3] = in vivo
Experimental: as §1, §2, §3, §4

SMILES	paw swelling (photographs of the paws) ([1]; day 6 of treatment, compared to mouse treated with K/BxN, FIG. 4)	average paw thickness (ankle joint inflammation) ([1]; versus KBxN group, NMN 185 mg/kg intraperitoneally, dexamethasone 1 mg/kg subcutaneously, FIG. 3)	average clinical score ([1]; versus KBxN group, NMN 185 mg/kg intraperitoneally, dexamethasone 1 mg/kg subcutaneously, measured daily, 9 days, FIG. 2)	tolerance ([2]; K/BxN serum-treated mice, NMN 185 mg/kg intraperitoneally, 9 days, FIG. 1)	paw appearance compared to mouse treated with vehicle (photographs) [3]	paw appearance compared to mouse treated with vehicle (photographs) ([2]; day 6 of treatment, FIG. 4)	average weight of mice (weight loss) ([2]; relative to KBxN group, NMN 185 mg/kg intraperitoneally, dexamethasone 1 mg/kg subcutaneously, 9 days, FIG. 1)
NC(=O)c1ccc[n+]([C@@H]2O[C@H](COP(=O)([O-])O)[C@@H](O)[C@H]2O)c1 [NMN, nicotinamide mononucleotide]	substantially reduces paw swelling	significantly reduced ankle joint inflammation starting on day 5	significant reduction in clinical score starting on day 5; also recorded: pronounced starting on day 8	well tolerated	volume similar to that of the mouse treated with vehicle	–	–
C[C@@H]1C[C@H]2[C@@H]3CCC4=CC(=O)C=C[C@]4(C)[C@@]3(F)[C@@H](O)C[C@]2(C)[C@@]1(O)C(=O)CO [dexamethasone]	–	–	–	–	–	much more slender than that of the mouse treated with vehicle	additional and significant weight loss
